Reference: US8664379B2, “Fused heterocyclic compounds as ion channel modulators” (Gilead Sciences, Inc., priority 2008, dated 2014)

Target: wild-type human cardiac sodium channel, hNav1.5 (late sodium current) (Homo sapiens, UniProt Q14524)
Assay: Late INa screening assay (PatchXpress whole cell patch clamp)
Type: cell-based
Conditions: HEK293 cells expressing hNav1.5, late INa generated with 10 μM Tefluthrin (some experiments 50 nM ATX II); for inhibition at 10 µM: HEK293, 10 μM test compound, read-out: Late INa % blk (10 μM test cmpd); for Late INa % blk (1 μM test cmpd): 1 μM test compound
Protocol: The late sodium current (Late INa) and peak sodium current (Peak INa) assays were performed on an automated electrophysiology platform, PatchXpress 7000A (MDS Analytical Technologies, Sunnyvale, Calif.), which uses the whole cell patch clamp technique to measure currents through the cell membrane of up to 16 cells at a time. The assay used an HEK293 (human embryonic kidney) cell line heterologously expressing the wild-type human cardiac sodium channel, hNav1.5, purchased from Millipore (Billerica, Mass.). No beta subunits were coexpressed with the Na channel alpha subunit. Cells were maintained with standard tissue culture procedures and stable channel expression was maintained with 400 μg/ml Geneticin in the culture medium. Cells isolated for use on PatchXpress were incubated for 5 minutes in Versene 1× and then for 2 minutes in 0.0125% Trypsin-EDTA (both at 37° C.) to ensure that 80-90% of the cells are single and not part of a cell cluster. Experiments were carried out at 24-27° C.
For both the Late INa and Peak INa assays, series resistance compensation was set to 50% and whole-cell compensation was performed automatically. Currents were low-pass filtered at 10 kHz and digitized at 31.25 kHz. Currents through open sodium channels were automatically recorded and stored in the DataXpress2 database (MDS Analytical Technologies, Sunnyvale, Calif.). Analysis was performed using DataXpress2 analysis software and data are compiled in Excel.
Compound stocks were routinely made in glass vials to 10 mM in dimethyl sulfoxide (DMSO). In some cases, when compounds were not soluble in DMSO, they were made in 100% ethanol. Stocks were sonicated as necessary. The extracellular solution for screening Late INa was composed of: 140 mM NaCl, 4 mM KCl, 1.8 mM CaCl2, 0.75 mM MgCl2, and 5 mM HEPES with pH adjusted to 7.4 using NaOH. The extracellular solution for screening Peak INa was composed of: 20 mM NaCl, 120 mM N-methyl-D glucamine, 4 mM KCl, 1.8 mM CaCl2, 0.75 mM MgCl2, and 5 mM HEPES with pH adjusted to 7.4 using HCl. The intracellular solution used to perfuse the inside of the cells for both the Late INa and Peak INa assays contains: 120 mM CsF, 20 mM CsCl, 5 mM EGTA, 5 mM HEPES and pH adjusted to 7.4 with CsOH. Compounds were diluted in extracellular solution to 10 μM in glass vials and then transferred to glass well plates before robotic addition to the cells. The 0Na extracellular solution used at the end of each experiment for the Late INa and Peak INa assays to measure baseline current contained: 140 mM N-methyl-D-glucamine; 4 mM KCl; 1.8 mM CaCl2; 0.75 mM MgCl2; 5 mM HEPES and pH was adjusted to 7.4 with HCl.
For the Late INa assay, sodium channels were activated every 10 seconds (0.1 Hz) by depolarizing the cell membrane to −20 mV for 250 milliseconds (ms) from a holding potential of −120 mV. In response to a −20 mV voltage step, typical Nav1.5 sodium currents activated rapidly to a peak negative current and then inactivated nearly completely within 3-4 ms.
All compounds were tested to determine their activity in blocking the late sodium current. Late INa current is generated by adding 10 μM Tefluthrin (pyrethroid) to the extracellular solution while recording Na currents. For some experiments, 50 nM ATX II (sea anemone toxin), another late INa activator, was used to generate the late component. Both activators generate late components that are large enough that block of the late component by compounds can be measured easily. For the purposes of the screening, late INa is defined as the mean current between 225 ms and 250 ms after stepping to −20 mV to activate Na channels. After establishing the whole cell recording configuration, late INa activators were added to each well 4 times over a 16-17 minute period so that the late component of the Na current reached a stable value. Compounds were then added (typically at 10 μM), in the presence of late INa activator, with 3 additions over the course of 7 or 8 minutes. […]

Sequence of wild-type human cardiac sodium channel, hNav1.5 (late sodium current) (Q14524 whole entry): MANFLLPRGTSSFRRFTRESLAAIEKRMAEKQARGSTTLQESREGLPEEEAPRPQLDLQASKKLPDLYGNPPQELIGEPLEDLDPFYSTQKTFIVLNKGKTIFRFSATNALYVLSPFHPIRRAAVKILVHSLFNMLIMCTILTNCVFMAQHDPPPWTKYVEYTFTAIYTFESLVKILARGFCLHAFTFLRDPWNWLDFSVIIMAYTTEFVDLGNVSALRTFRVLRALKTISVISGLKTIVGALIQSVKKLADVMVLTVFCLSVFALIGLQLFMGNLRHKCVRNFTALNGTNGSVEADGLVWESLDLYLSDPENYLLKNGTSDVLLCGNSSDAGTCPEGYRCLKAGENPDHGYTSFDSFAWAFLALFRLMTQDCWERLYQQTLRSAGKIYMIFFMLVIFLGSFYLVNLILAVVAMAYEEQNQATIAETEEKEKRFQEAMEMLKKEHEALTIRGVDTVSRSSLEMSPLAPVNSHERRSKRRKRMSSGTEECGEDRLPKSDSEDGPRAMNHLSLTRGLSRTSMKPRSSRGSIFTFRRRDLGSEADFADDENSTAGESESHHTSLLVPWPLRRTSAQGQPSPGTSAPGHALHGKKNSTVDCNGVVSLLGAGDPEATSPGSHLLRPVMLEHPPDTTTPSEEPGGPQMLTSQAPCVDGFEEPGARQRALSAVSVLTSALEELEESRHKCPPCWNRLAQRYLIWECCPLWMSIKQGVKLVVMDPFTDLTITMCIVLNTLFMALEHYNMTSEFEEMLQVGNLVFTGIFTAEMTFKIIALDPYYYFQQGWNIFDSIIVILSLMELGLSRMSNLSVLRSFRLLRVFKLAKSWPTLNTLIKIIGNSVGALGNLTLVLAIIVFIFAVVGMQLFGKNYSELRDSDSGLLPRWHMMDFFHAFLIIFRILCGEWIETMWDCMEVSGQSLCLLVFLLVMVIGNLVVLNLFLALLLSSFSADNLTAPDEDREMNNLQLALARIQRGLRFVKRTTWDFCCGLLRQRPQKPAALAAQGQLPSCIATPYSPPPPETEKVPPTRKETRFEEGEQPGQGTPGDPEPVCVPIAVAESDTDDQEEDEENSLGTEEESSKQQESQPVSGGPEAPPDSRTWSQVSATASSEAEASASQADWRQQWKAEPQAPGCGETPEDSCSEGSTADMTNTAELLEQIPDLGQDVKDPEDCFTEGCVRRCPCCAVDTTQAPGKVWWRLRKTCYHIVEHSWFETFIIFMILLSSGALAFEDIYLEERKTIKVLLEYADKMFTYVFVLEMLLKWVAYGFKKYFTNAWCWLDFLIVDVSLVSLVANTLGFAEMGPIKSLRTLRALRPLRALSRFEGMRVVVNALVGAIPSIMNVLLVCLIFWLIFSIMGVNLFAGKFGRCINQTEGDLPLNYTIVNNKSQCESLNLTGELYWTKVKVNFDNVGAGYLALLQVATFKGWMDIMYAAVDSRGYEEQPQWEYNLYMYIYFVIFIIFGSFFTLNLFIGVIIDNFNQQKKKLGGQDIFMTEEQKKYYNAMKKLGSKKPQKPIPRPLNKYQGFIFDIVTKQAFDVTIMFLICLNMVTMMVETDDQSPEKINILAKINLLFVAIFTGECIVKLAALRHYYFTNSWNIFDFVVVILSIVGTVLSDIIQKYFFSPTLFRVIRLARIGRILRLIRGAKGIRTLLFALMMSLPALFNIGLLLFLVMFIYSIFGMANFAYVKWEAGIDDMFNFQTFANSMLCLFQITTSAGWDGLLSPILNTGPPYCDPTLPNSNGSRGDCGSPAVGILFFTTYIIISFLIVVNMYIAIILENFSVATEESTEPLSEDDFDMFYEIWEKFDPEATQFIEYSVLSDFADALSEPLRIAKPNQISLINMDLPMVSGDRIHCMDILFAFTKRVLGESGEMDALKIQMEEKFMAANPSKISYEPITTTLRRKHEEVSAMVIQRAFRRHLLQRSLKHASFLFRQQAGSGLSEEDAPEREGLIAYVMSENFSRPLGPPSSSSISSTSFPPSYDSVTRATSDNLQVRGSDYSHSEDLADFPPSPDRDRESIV

| SMILES | inhibition at 10 µM | Late INa % blk (1 μM test cmpd) |
| --- | --- | --- |
| NC(=O)c1ccc(-c2ccc3c(c2)CCC(=O)N3)cc1 [Compound 2, 4-(2-oxo-1,2,3,4-tetrahydroquinolin-6-yl)benzamide] | 16% |  |
| O=C1CCc2cc(-c3ccc(F)cc3)ccc2N1 [Compound 3, 6-(4-fluorophenyl)-3,4-dihydroquinolin-2(1H)-one] | 29% |  |
| N#Cc1ccc(-c2ccc3c(c2)CCC(=O)N3)cc1 [Compound 5, 4-(2-oxo-1,2,3,4-tetrahydroquinolin-6-yl)benzonitrile] | 30% |  |
| NC(=O)c1cccc(-c2ccc3c(c2)CCC(=O)N3)c1 [Compound 6, 3-(2-oxo-1,2,3,4-tetrahydroquinolin-6-yl)benzamide] | 23% |  |
| O=C1CCc2cc(-c3ccccc3F)ccc2N1 [Compound 7, 6-(2-fluorophenyl)-3,4-dihydroquinolin-2(1H)-one] | 52% |  |
| CC(=O)c1cccc(-c2ccc3c(c2)CCC(=O)N3)c1 [Compound 8, 6-(3-acetylphenyl)-3,4-dihydroquinolin-2(1H)-one] | 22% |  |
| O=C1CCc2cc(-c3ccc(C(F)(F)F)cc3)ccc2N1 [Compound 9, 6-[4-(trifluoromethyl)phenyl]-3,4-dihydroquinolin-2(1H)-one] | 62% |  |
| O=C1CCc2cc(-c3ccc(Cl)c(C(F)(F)F)c3)ccc2N1 [Compound 10, 6-[4-chloro-3-(trifluoromethyl)phenyl]-3,4-dihydroquinolin-2(1H)-one] | 66% | 40% |
| O=C1CCc2cc(-c3ccc(F)cc3F)ccc2N1 [Compound 11, 6-(2,4-difluorophenyl)-3,4-dihydroquinolin-2(1H)-one] | 54% |  |
| N#Cc1cc(-c2ccc3c(c2)CCC(=O)N3)ccc1F [Compound 12, 2-fluoro-5-(2-oxo-1,2,3,4-tetrahydroquinolin-6-yl)benzonitrile] | 27% |  |
| O=C1CCc2cc(-c3cccc(C(F)(F)F)c3)ccc2N1 [Compound 13, 6-[3-(trifluoromethyl)phenyl]-3,4-dihydroquinolin-2(1H)-one] | 70% |  |
| O=C1CCc2cc(-c3ccc(F)cc3F)ccc2N1CCO [Compound 16, 6-(2,4-difluorophenyl)-1-(2-hydroxyethyl)-3,4-dihydroquinolin-2(1H)-one] | 24% |  |
| O=C1CCc2cc(-c3ccc(C(F)(F)F)c(F)c3)ccc2N1 [Compound 19, 6-(3-fluoro-4-(trifluoromethyl)phenyl)-3,4-dihydroquinolin-2(1H)-one] | 31% |  |
| CCOC(=O)CN1C(=O)CCc2cc(-c3ccc(F)cc3F)ccc21 [Compound 22, ethyl [6-(2,4-difluorophenyl)-2-oxo-3,4-dihydroquinolin-1(2H)-yl]acetate] | 67% |  |
| CCOC(=O)CN1C(=O)CCc2cc(-c3ccc(F)c(F)c3)ccc21 [Compound 23, ethyl [6-(3,4-difluorophenyl)-2-oxo-3,4-dihydroquinolin-1(2H)-yl]acetate] | 33% |  |
| CCOC(=O)CN1C(=O)CCc2cc(-c3cccc(OC(F)(F)F)c3)ccc21 [Compound 24, ethyl {2-oxo-6-[3-(trifluoromethoxy)phenyl]-3,4-dihydroquinolin-1(2H)-yl}acetate] | 74% | 44% |
| O=C1CCc2cc(-c3ccc(F)cc3F)ccc2N1CC(F)(F)F [Compound 28, 6-(2,4-difluorophenyl)-1-(2,2,2-trifluoroethyl)-3,4-dihydroquinolin-2(1H)-one] | 18% |  |
| CC(C)(C)OC(=O)CN1C(=O)CCc2cc(-c3ccc(F)cc3F)ccc21 [Compound 30, tert-butyl [6-(2,4-difluorophenyl)-2-oxo-3,4-dihydroquinolin-1(2H)-yl]acetate] | 86% | 47.9% |
| NC(=O)CN1C(=O)CCc2cc(-c3ccc(OC(F)(F)F)cc3)ccc21 [Compound 31, 2-{2-oxo-6-[4-(trifluoromethoxy)phenyl]-3,4-dihydroquinolin-1(2H)-yl}acetamide] | 26% |  |
